According to ChEMBL document CHEMBL5360643, “Cyclic Peptides from the Opportunistic Pathogen Basidiobolus meristosporus” (J Nat Prod, 2023):
≈ marks a conversion by molar mass, not a printed value.

What was measured:
[1] = Cytotoxicity against mouse RAW264.7 cells assessed as reduction in cell viability incubated for 24 hrs by CCK-8 assay; type: toxicity, cell-based
[2] = Cytotoxicity against human HEK293T cells assessed as reduction in cell viability incubated for 24 hrs by CCK-8 assay; type: toxicity, cell-based, HEK-293T
[3] = Cytotoxicity against human HepG2 cells assessed as reduction in cell viability incubated for 24 hrs by CCK-8 assay; type: toxicity, cell-based

| SMILES | IC50 at 24 h [1] [µg/mL] | IC50 at 24 h [2] [µg/mL] | IC50 at 24 h [3] [µg/mL] |
| --- | --- | --- | --- |
| CC[C@H](C)[C@@H]1NC(=O)[C@H](Cc2ccccc2)NC(=O)[C@@H]2C[C@]3(O)c4ccccc4N[C@H]3N2C(=O)[C@H]([C@@H](C)O)NC(=O)[C@@H](Cc2ccc(O)cc2)NC1=O | 182 (≈ 251 µM) | 148 (≈ 203 µM) | 110 (≈ 151 µM) |
| CC(C)C[C@H]1NC(=O)[C@H](Cc2ccccc2)NC(=O)[C@H](Cc2c[nH]c3ccccc23)NC(=O)[C@@H](C(C)C)NC(=O)[C@H](C(C)C)NC(=O)[C@@H](C)NC1=O | 7.7 (≈ 10.8 µM) | 150 (≈ 210 µM) | 125 (≈ 174 µM) |
| CC[C@H](C)[C@@H]1NC(=O)[C@H](Cc2ccccc2)NC(=O)[C@H](Cc2c[nH]c3ccccc23)NC(=O)[C@@H]([C@@H](C)O)NC(=O)[C@@H](Cc2ccc(O)cc2)NC1=O | 17.2 (≈ 24.2 µM) | 6 (≈ 8.44 µM) | 29.6 (≈ 41.6 µM) |
| COc1cc([C@@H]2c3cc4c(cc3[C@H](O)[C@H]3COC(=O)[C@H]23)OCO4)cc(OC)c1OC [PODOFILOX] | 61.3 (≈ 148 µM) | 20 (≈ 48.3 µM) | 19.6 (≈ 47.3 µM) |
